Data as given in PubChem BioAssay (NCI).
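A five-concentration, 48-hour dose response in 96-well plates underlies each endpoint, interpolated linearly between surrounding concentrations. TGI denotes the concentration required for complete inhibition of growth.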

Legend:
Assay in all cases: NCI tumour cell line growth inhibition, 48 h
[1] = test system: U251 CNS
[2] = test system: K-562 leukemia
[3] = test system: SN12C renal
[4] = test system: COLO 205 colon
[5] = test system: MDA-N
[6] = test system: DU-145 prostate
[7] = test system: NCI/ADR-RES ovarian
[8] = test system: SF-268 CNS
[9] = test system: OVCAR-5 ovarian
[10] = test system: HCT-15 colon
[11] = test system: LOX IMVI melanoma
[12] = test system: SK-MEL-2 melanoma
[13] = test system: EKVX NSCLC
[14] = test system: A498 renal
[15] = test system: M14 melanoma
[16] = test system: SK-OV-3 ovarian
[17] = test system: HCC-2998 colon
[18] = test system: HL-60(TB) leukemia
[19] = test system: CCRF-CEM leukemia
[20] = test system: TK-10 renal

SMILES	TGI [1] [µM]	TGI [2] [µM]	TGI [3] [µM]	TGI [4] [µM]	TGI [5] [µM]	TGI [6] [µM]	TGI [7] [µM]	TGI [8] [µM]	TGI [9] [µM]	TGI [10] [µM]	TGI [11] [µM]	TGI [12] [µM]	TGI [13] [µM]	TGI [14] [µM]	TGI [15] [µM]	TGI [16] [µM]	TGI [17] [µM]	TGI [18] [µM]	TGI [19] [µM]	TGI [20] [µM]
CCCCc1ccc(Nc2nc(Cl)c3ncn(COCCOC(C)=O)c3n2)cc1	35	55.5	39.8	48.5	37	29.7	35.7	36.9	35.5	31.6	27.9	31.5	20.3	59.3	36.7	76.9	24.5	45.6	> 100	35.1
Cn1c2ccccc2n2c3ncccc3c(=NCCCC(=O)O)c(C#N)c12	> 100	> 100	> 100	> 100	> 100	> 100	> 100	> 100	> 100	> 100	> 100	> 100	> 100	> 100	> 100	> 100	> 100	> 100	> 100	
O=C1NC(=S)N/C1=C\c1cc2c(=O)c3ccccc3sc2s1	> 100	> 100	> 100	> 100	> 100	> 100	> 100	> 100	> 100	> 100	> 100	> 100	> 100	> 100			> 100	> 100		> 100
CCCCCCCCCCCCCCCCCCNc1ccn(C2OC(COP(=O)(O)OCC3OC(n4cc(C)c(=O)[nH]c4=O)CC3F)C(O)C2O)c(=O)n1 (stereo not drawn)	15	42.5	39.7	9.53	38.9	46.2	45.9	19.5	6.48	15.9	14.9	19.4	20.7	> 60.2	30.9	18	13.5	19.3	12.4	9.9
COC(=O)c1c(C)cccc1C1CN=NC12Cc1ccccc1C2=O (stereo not drawn)	> 100	> 100	> 100	> 100	> 100	> 100	> 100	> 100	> 100	> 100	> 100	> 100	> 100	> 100	> 87.9	> 100	> 100	> 100	> 100	> 100
O=c1ccn(CC2(CO)CCCC2)c(=O)[nH]1	> 100	> 100	> 100	> 100	> 100	> 100	> 100	> 100	> 100	> 100	> 100	> 100	> 100	> 100		> 100	> 100	> 100	> 100	> 100
CC(C)C1OC(N)=C(C#N)C1(C#N)C#N (stereo not drawn)	> 100	> 100	> 100	> 100	> 100	> 100	> 100	> 100	> 100		> 100	> 100	> 100	> 100	> 100	> 100	58	35.5	91.4	> 100
COc1ccc(OC)c(CSc2ccc(OC)c(OC)c2)c1	> 100	> 100	> 100	> 100	> 100	> 100	> 100	> 100	> 100	> 100	> 100	> 100	> 100	99.3	> 100	> 100	> 100	> 100	> 100	> 100
CC1=NN(c2nc(N)nc(CBr)n2)C(C)(C)C1	16.9	> 100	20.5	9.61	25.5	12.1	45.4	23	13.8	16.6	1.89	26.2	15	25.7	21.2	38.7	30.6		0.983	14.9
c1cnn(C23C4C5C6C4C2C6C53)c1 (stereo not drawn)	> 100	> 100	> 100	> 100	> 100	> 100	> 100	> 100	> 100	> 100	> 100	> 100	> 100	> 100		> 100	> 100	> 100	> 100	> 100
Cc1ccc(S(=O)(=O)N2CCN(S(=O)(=O)c3ccc(C)cc3)CCN(S(=O)(=O)c3ccc(C)cc3)Cc3cc(C#N)c(C#N)cc3CN(S(=O)(=O)c3ccc(C)cc3)CC2)cc1	> 100	> 100	> 100	> 100	> 100	> 100	> 100	> 100	> 100	> 100	> 100		> 100	58.2	89.1	> 100	> 100	> 100	> 100	> 100
Cc1ccc(/C=N/n2c(Cc3ccccc3)n[nH]c2=O)cc1		> 100	> 100	> 100	> 100	> 100	> 100	> 100	> 100	> 100	> 100		> 100	> 100	> 100		> 100	> 100	> 100	> 100
